Where a name gives a salt, the structure may show the parent alone.
How the values were obtained:
[1] = test system: BOT-2 human breast cancer cells; assay: Cytotoxicity by visual inspection / MTT assay, 100% cell kill at serial dilutions; format: cell-based; conditions: for Activity: Table of Side Chains, scale not given; for activity compared to mitoxantrone: cytotoxicity assay
Description: (§1) The MTT assay was used to determine levels of 100% and 50% cell kill. In addition to activity against cancer mitoxantrone has been used to treat certain forms of multiple sclerosis and is approved by the FDA to treat both cancer and multiple sclerosis. Mitoxantrone also has significant immune modulatory effects and could be used to treat severe forms of collagen vascular disorders.
Testing of compounds in the MTT assay. In a 72 well plate, the BOT-2 human breast cancer cells were allowed to grow for 24 hours. Following this growth time, dilutions of the drug was added. The cells were checked for percentage of cell death at 24 and 48 hours. This checking was done by visual appearance of the cells. Rounded up floating cells or disrupted cells indicating cell death. Cells flattened and attached to the bottom of the tissue culture flask indicated alive and healthy cells. At 144 hours MTT.
Visual inspection assay: BOT-2 cancer cells after treatment with an anthracycline or cytotoxic anthraquinone compounds. The dead cells become rounded, detach and float. The compound is initially dissolved in 0.1 N hydrochloric acid or dilute acetic acid. Serial 1 to 4 dilutions of the compound are made with buffered tissue culture media and pipetted into a wells of a 72 well microtiter plate. Determination is made of 100% cell death at 24, 48 and 144 hours for each well. Controls are always run concurrently. […] Previous work has determined if 100% kill is noted there is never re-growth of the tumor cells.
A solution of 1,4,5,8-Tetrakis-[2-(2-aminoethyl)amino]anthraquinone dihydrochloride (T-4) was made of 10 mg/ml in de-ionized water. This was then diluted to 1 mg/ml. This solution was filtered to sterilize. Seventy micro liters (70 μl) of this was mixed with tissue culture media and added to 70 well plate. Two hundred ten (210) cells per well were previously grown for 24 hrs prior to adding the test drug. The test compounds were added in serial 1 to 3 dilutions. 1,4,5,8-Tetrakis-[2-(2-aminoethyl)amino]anthraquinone (T-4) was tested against mitoxantrone, epirubicin, and bis-1,4-aminoethylamino-5,8-dihydroxyanthraquinone. There was also a control in which no drug was added. […] The end point for positive cell kill was 100% cell death.
A solution of 1,4,5,8-Tetrakis-N,N-dimethylaminoethylaminoanthraquinone dihydrochloride was made of 10 mg/ml in de-ionized water. This was then diluted to 1 mg/ml. This solution was filtered to sterilize. 70 μl of this was mixed with tissue culture media and added to 70 well plate. Two hundred ten (210) cells per well were previously grown for 24 hrs prior to adding the test drug. The test compounds were added in serial 1 to 3 dilutions. The 1,4,5,8-Tetrakis-N,N-dimethylaminoethylaminoanthraquinone was tested against mitoxantrone (bis-1,4-hydroxyethylaminoethylamino-5,8-dihydroxyanthraquinone dihydrochloride), epirubicin, and 1,4-bis-[(aminoethyl)amino]anthraquinone. There was also a control in which no drug was added. […] The end point for positive cell kill was 100% cell death.

[2] = test system: BOT-2 breast cancer cell line; assay: Doublet combinations with other chemotherapy drugs, cell kill; format: cell-based, human; conditions: other drugs included docetaxel, gemcitabine and topotecan
Description: as §1, with “The synthesized compounds tested were compared to mitoxantrone (Novantrone®) when tested in a tissue culture system using the BOT-2 breast cancer cell line. The” for “The”, “disorders. The compounds described in the present disclosure would be expected to have similar activities at a greater therapeutic efficacy.” for “disorders.”
These other drugs included docetaxel, gemcitabine and topotecan.

Molecule	Activity [1]	activity compared to mitoxantrone [1]	other results
O=C1c2c(NCCNCCO)ccc(NCCNCCO)c2C(=O)c2c(NCCNCCO)ccc(NCCNCCO)c21 [Designation T-1]	5	more active than mitoxantrone	
CN(C)CCNc1ccc(NCCN(C)C)c2c1C(=O)c1c(NCCN(C)C)ccc(NCCN(C)C)c1C2=O [Designation T-2, 1,4,5,8-Tetrakis-[(2-N,N-dimethylaminoethyl)amino]anthraquinone]	5	more active than mitoxantrone	
O=C1c2c(NCCO)ccc(NCCO)c2C(=O)c2c(NCCO)ccc(NCCO)c21 [Designation T-3, 1,4,5,8-Tetrakis-[(2-hydroxyethyl)amino]anthraquinone]	1		activity in cytotoxicity assay ([1]; end point 100% cell death, 24, 48 and 144 hrs): inactive; 100% cell kill went out to (number of dilutions) ([1]; starting solution 1 mg/ml, end point 100% cell death, at 24, 48 and 144 hrs): 1 dilutions
NCCNc1ccc(NCCN)c2c1C(=O)c1c(NCCN)ccc(NCCN)c1C2=O [Designation T-4, 1,4,5,8-Tetrakis-[2-(2-aminoethyl)amino]anthraquinone]	5	more active than mitoxantrone	100% cell kill went out to (number of 1:4 dilutions) ([1]; starting solution 1 mg/ml, end point 100% cell death): 5 1:4 dilutions
CNCCN(C)c1ccc(NCCNCCO)c2c1C(=O)c1c(N(C)CCNC)ccc(N(C)CCNC)c1C2=O [T-2,2,2,1]	5		
CN(C)CCNc1ccc(NCCO)c2c1C(=O)c1c(NCCN(C)C)ccc(NCCN(C)C)c1C2=O [T-2,2,2,3]	5		
CN(C)c1ccc(NCCCl)c2c1C(=O)c1c(N(C)C)ccc(N(C)C)c1C2=O [T-2,2,2,8, 1,4,5-Tris-(N,N-dimethylamino),8-(2-chloroethylamino)anthraquinone]		more active than mitoxantrone	
O=C1c2c(O)ccc(O)c2C(=O)c2c(NCCNCCO)ccc(NCCNCCO)c21 [mitoxantrone, bis-1,4-hydroxyethylaminoethylamino-5,8-dihydroxyanthraquinone dihydrochloride, reference compound]			cell kill in doublet combination with other chemotherapy drugs [2]: extent of synergism was not seen
tetrakis-1,4,5,8-hydroxyalkylaminoethylaminoanthraquinone dihydrochloride			cell kill in doublet combination with other chemotherapy drugs [2]: synergistic cell kill (greater than additive)

Source: patent publication US8420861B2, “Anti-tumor compounds derived from 1,4,5,8-tetrachloroanthraquinone” (priority 2007, dated 2013)
